In ChEMBL document CHEMBL3507680, “University of Dundee, Gates Library screen for HepG2 cell viability”:

Test: Human HepG2 cell viability assay in 384 well format
Assay type: toxicity, cell-based
Design: dose 125 nL, time 70.5 hour; concentration not given beside the values
Settings: HepG2 cells, read-out: Inhibition

| Structure (SMILES) | cytotoxicity at 70.5 h [%] |
| --- | --- |
| Fc1cnc(N2CCC3(CC2)CN(Cc2cccs2)CCO3)nc1 | -6.3 |
| N#CCCN(Cc1ccco1)C(=O)CCCNC(=O)c1ccccc1 | -15.9 |
| OCCC1CN(c2ncnc3[nH]cnc23)CCN1Cc1ccccc1 (stereo unspecified) | -3.48 |
| Cc1cnc(C(=O)N2CCc3ncnc(C)c3CC2)cn1 | -3.63 |
| Cn1nccc1C(=O)N1CCCC1c1ccc(C(=O)N2CCOCC2)s1 (stereo unspecified) | 0.297 |
| CCCn1cc(S(=O)(=O)N(C)Cc2nonc2C)c(C)n1 | -3.71 |
| CCc1nc(C2CCCN2CCCSC)no1 (stereo unspecified) | -4.43 |
| CCn1nnc(NCc2cc(Cl)cc(Cl)c2OC)n1 | 18.4 |
| CSc1nccc(NCc2cc3n(n2)CCCN(S(C)(=O)=O)C3)n1 | -12.4 |
| COCCC1(CO)CCCN(Cc2cc(C(F)(F)F)ccc2F)C1 (stereo unspecified) | -1.42 |
| CS(=O)(=O)CCCC(=O)Nc1cc(-c2cccc(F)c2F)n[nH]1 | -16.7 |
| CN(Cc1cc[nH]n1)C(=O)c1cn(Cc2ccccc2Cl)nn1 | -9.32 |
| COc1c(CNC(c2ccc(F)cc2)c2nccn2C)c(C)nn1C (stereo unspecified) | 45.1 |
| COCC(C)(O)CNC(=O)Nc1cccc(OC)c1OC (stereo unspecified) | -11 |
| Cc1cc2ncc(CN(C)C)c(C3CCN(C)CC3)n2n1 | 13.7 |
| Cc1nnc2n1CCN(C(=O)c1cnc3c(cnn3CC(C)C)c1)C2 | 25.8 |
| CC(C)Cn1[nH]cc/c1=N\C(=O)CN1CCOC(Cn2cccn2)C1 (stereo unspecified) | 21.5 |
| COC(=O)[C@@H]1Cc2[nH]cnc2CN1Cc1cc2ccccc2o1 | -2.5 |
| CCN(C(c1ccc(OC)cc1)c1cccnc1)S(C)(=O)=O (stereo unspecified) | -9.72 |
| Cc1cccnc1CNc1cc(N2CCCC2CO)ncn1 (stereo unspecified) | -8.44 |
| COc1cccc(F)c1C(=O)N1C[C@@H](CN(C)CCO)[C@@H](CO)C1 | -8.49 |

| Structure (SMILES) | cytotoxicity at 70.5 h [%] |
| --- | --- |
| NCC1Cc2cc(Oc3cc(F)c(CN4CCCC4)c(F)c3)ccc2O1 (stereo unspecified) | -11.4 |
| CC(C)N1C[C@H](NC(=O)c2coc(COc3cccc(F)c3)n2)[C@@H](O)C1 | 2.02 |
| Cc1cc(NC(=O)NCC(c2ccccc2)N2CCOCC2)n(C)n1 (stereo unspecified) | -3.59 |
| CC(C)c1cc(N2CCC(NS(C)(=O)=O)CC2)n2nccc2n1 | -2.38 |
| CCN1CCC(NC(=O)NCC(O)c2ccc(Cl)c(F)c2)CC1 (stereo unspecified) | 6.86 |
| CC1CCCCN1C1CN(c2nc(C3CCCC3)nc3c2cnn3C)C1 (stereo unspecified) | -3.67 |
| COC(=O)CN(C(=O)c1ccco1)c1cccc(F)c1 | 16.3 |
| Cc1cc(NCCC(=O)NC(C)C)nc(-c2ccncc2)n1 | 3.03 |
| COc1nn(C)c2c1CCCN(S(=O)(=O)c1cccc(F)c1)C2 | -4.75 |
| CCc1nc(C)c(C(=O)N[C@@H]2c3ccccc3C[C@@H]2O)o1 | 16 |
| CO[C@@H]1c2ccccc2C2(CCN(C(=O)CNC(=O)C(C)C)CC2)[C@H]1O | -6.67 |
| Cc1nn(C)c(C)c1C1CCCN1C(=O)CCNc1ncccn1 (stereo unspecified) | -4.27 |
| CCN(CCO)C[C@@H]1CN(c2nc(C)cc(C)n2)C[C@@H]1CO | -2.32 |
| Cc1ccc(-c2cn[nH]c2C2CCCN(c3nccc(N)n3)C2)cc1 (stereo unspecified) | -1.62 |
| O=C1CCc2ccccc2N1CCCn1cnnn1 | -7.93 |
| Cc1nc(C)c(C)c(N(C)CCCc2nccn2C)n1 | -8.93 |
| Fc1cccc(Cc2cncc(C3CCCN3C3CCOCC3)n2)c1 (stereo unspecified) | -5.65 |
| Cc1nn(C)c2c(NCCCn3cccn3)nc(C(C)C)nc12 | 16.2 |
| Cc1ccc(O)c(CNC2CCc3nc(C)nn3C2)n1 (stereo unspecified) | -0.718 |
| CC1CCCCN1C(=O)c1ccc(Br)s1 (stereo unspecified) | -5.12 |
| Cc1cn2c(n1)CCC(NC(=O)c1ccc(OCC3CC3)nc1)C2 (stereo unspecified) | -3.71 |

| Structure (SMILES) | cytotoxicity at 70.5 h [%] |
| --- | --- |
| CC(=O)N1CCC1c1cc(N2CC(O)C2)nc(C)n1 (stereo unspecified) | -11.3 |
| CCN(CC(=O)N(C)C)S(=O)(=O)c1cnc2c(c1)c(C)nn2C | -17.2 |
| O=C(Cc1ccccn1)N1CCN2C[C@H](Oc3cncnc3)C[C@H]2C1 | -7.37 |
| COCc1cc(CC2(NCc3ccccc3Cl)COC2)no1 | -3.62 |
| Cc1noc(C2CCCCN2C(=O)C2CCN(C(C)C)CC2)n1 (stereo unspecified) | 5.11 |
| O=C1OC2(CCN(C(=O)C3NCCc4[nH]cnc43)CC2)c2ccccc21 (stereo unspecified) | -9.73 |
| Cn1cccc1C(=O)N1CC[C@H]2[C@H]1CCN2CC1CC1 | -0.69 |
| COc1ccnc(N2CCN(CC(=O)N3CCC(C)CC3)CC2)n1 | -13.2 |
| CCCN1Cc2ccccc2NC(=O)C12CCNC2 (stereo unspecified) | -1.87 |
| CN1CCN(CC(NCc2ccc(F)cc2)c2ccccc2)CC1 (stereo unspecified) | 17.2 |
| c1ccc(N2CC[C@@H]3CN(Cc4ccncc4)CCO[C@@H]3C2)cc1 | -1.73 |
| FC1(F)CCN(Cc2ccccn2)CC12CCN(c1cnccn1)C2 (stereo unspecified) | -5.08 |
| CC(C)SCC(=O)N1CCCn2nc(C(=O)Nc3ccccc3)cc2C1 | 6.99 |
| Clc1snnc1CN1CCCC1Cn1cccn1 (stereo unspecified) | -1.24 |
| CCCn1cc(C(=O)N2CCCC2(C)c2nc(C)cc(C)n2)cn1 (stereo unspecified) | -13.9 |
| Cc1noc(C)c1-c1nc(N(C)C)ncc1-c1cnccn1 | -5.02 |
| CS(=O)(=O)NCCC1CN(Cc2ccccc2F)CCO1 (stereo unspecified) | 0.792 |
| COc1ccc(NC(=O)N(CCO)Cc2ccsc2)c(OC)c1 | 0.461 |
| Cc1nc(C(C)C)sc1C(=O)N(C)Cc1nc(-c2ccccn2)no1 | -9.57 |
| O=C(Cc1ccccc1Cl)NCCN1CCC(c2cccs2)CC1 | 1.31 |
| CCCc1[nH]n(C)c(=N)c1-c1ccc2c(c1)OCO2 | -3.98 |

| Structure (SMILES) | cytotoxicity at 70.5 h [%] |
| --- | --- |
| Cc1cc(NCCCOC(C)C)c2nncn2n1 | 7.73 |
| Cc1cc(C(=O)N2CCCC(N3CCNC3=O)C2)nn1C(C)(C)C (stereo unspecified) | -0.73 |
| CN1C(=N)NC(=O)/C1=C\c1ccc(-c2ccc(F)cc2)o1 | 28.8 |
| Cc1[nH]nc2ncc(C(=O)N3CCCC3c3noc(C(C)C)n3)cc12 (stereo unspecified) | -19.5 |
| COCC(=O)N1CCCn2c(CN3CCOCC3)nnc2C1 | 2.56 |
| Cc1nn(C)c2nc3c(c(C(=O)/N=c4\[nH]nc(C(C)C)s4)c12)CCC3 | -18.8 |
| O=S(=O)(Nc1cn[nH]c1)c1ccc(Br)c(F)c1 | -2.34 |
| COc1ccc(OCCCNC(=O)NCc2csc(C)n2)cc1 | -7.03 |
| CCOC(C)c1nc(CN2CCN(c3ncc(C)cn3)CC2)cs1 (stereo unspecified) | -5.09 |
| COc1cccc(-c2ccc(CNC(=O)c3ccc(=O)n(C)c3)cc2)c1 | 6.19 |
| O=C(CC1CCCCC1)NC1CCCCNC1=O (stereo unspecified) | -9.32 |
| CCCC(Cn1cnc(-c2ccccc2)c1-c1cncn1CC)N(C)C (stereo unspecified) | -0.815 |
| CCc1cnc(N2C[C@H]3CN(Cc4ccc(OC)cc4)C(=O)[C@H]3C2)nc1 | -2.79 |
| CC(c1nc(-c2ccccc2)no1)N1CCc2c(ncn2C2CC2)C1 (stereo unspecified) | -2.24 |
| COCC(=O)N1C[C@H]2CNC[C@@]2(C(=O)NCc2nc(C)cc(C)n2)C1 | -7.28 |
| Cc1ccccc1NC(=O)N1CCN(Cc2noc(C3CC3)n2)CC1 | 1.73 |
| O=S(=O)(CCCN1CCCC1Cn1cncn1)c1ccccc1 (stereo unspecified) | 11.6 |
| Cc1ccc(N2CC[C@H]3O[C@@H](C(=O)N4CCCO4)CC[C@H]32)nn1 | 0.0406 |
